Tests used:
[1] = Inhibition of HIV1 RES056 reverse transcriptase K103N/Y181C double mutant infected in human MT4 cells assessed as protection against virus-induced cytopathic effect measured at 5 days post infection by MTT assay
[2] = Inhibition of HIV-1 reverse transcriptase E138K mutant infected in human MT4 cells assessed as protection against virus-induced cytopathic effect measured at 5 days post infection by MTT assay

Row | SMILES | EC50 [1] | EC50 [2]
1 | Cc1cc(C)nc(Sc2ccnc(Nc3ccc(C#N)cc3)n2)n1 | > 224 µM | > 224 µM
2 | N#Cc1ccc(Nc2nccc(OCc3cc(F)ccc3Br)n2)cc1 | > 190 µM | > 190 µM
3 | N#Cc1ccc(Nc2nccc(NCc3ccccn3)n2)cc1 | > 8.5 µM | 0.24 µM
4 | COc1cccc(COc2ccnc(Nc3ccc(C#N)cc3)n2)c1 | > 118 µM | 1.1 µM
5 | N#Cc1ccc(Nc2nccc(OCc3ccccc3C#N)n2)cc1 | > 113 µM | > 113 µM
6 | N#Cc1ccc(Nc2nccc(OCc3cccnc3)n2)cc1 | > 6.4 µM | > 6.4 µM
7 | CN(C)c1ccnc(Nc2ccc(C#N)cc2)n1 | > 34 µM | > 34 µM
8 | N#Cc1ccc(Nc2nccc(OCc3ccccc3Cl)n2)cc1 | > 146 µM | > 146 µM
9 | N#Cc1ccc(Nc2nccc(OCc3ccc(Br)cc3)n2)cc1 | > 16 µM | > 16 µM
10 | N#Cc1ccc(Nc2nccc(OCc3cccc4ccccc34)n2)cc1 | > 7.7 µM | 0.3 µM
11 | Cc1ccc(COc2ccnc(Nc3ccc(C#N)cc3)n2)cc1 | > 81 µM | 7.2 µM
12 | N#Cc1ccc(Nc2nccc(OCc3cccc(C#N)c3)n2)cc1 | > 4.1 µM | > 4.1 µM
13 | N#Cc1ccc(Nc2nccc(OCc3ccc(Br)cc3F)n2)cc1 | > 141 µM | 35.8 µM
14 | N#Cc1ccc(Nc2nccc(OCc3ccccc3C(F)(F)F)n2)cc1 | > 173 µM | > 173 µM
15 | N#Cc1ccc(Nc2nccc(OCc3cccc(C(F)(F)F)c3)n2)cc1 | > 118 µM | > 118 µM
16 | COc1ccc(COc2ccnc(Nc3ccc(C#N)cc3)n2)cc1 | > 102 µM | > 102 µM
17 | N#Cc1ccc(Nc2nccc(OCc3ccccc3Br)n2)cc1 | > 130 µM | > 130 µM
18 | Cc1cccc(COc2ccnc(Nc3ccc(C#N)cc3)n2)c1 | > 30 µM | 1.18 µM
19 | N#Cc1ccc(COc2ccnc(Nc3ccc(C#N)cc3)n2)cc1 | > 209 µM | > 209 µM
20 | N#Cc1ccc(Nc2nccc(OCc3cccc(Cl)c3)n2)cc1 | > 153 µM | > 153 µM
21 | N#Cc1ccc(Nc2nccc(OCc3ccccc3F)n2)cc1 | > 151 µM | 0.3 µM
22 | N#Cc1ccc(Nc2nccc(OCc3cccc(F)c3)n2)cc1 | > 105 µM | 1.88 µM
23 | N#Cc1ccc(Nc2nccc(OCc3ccc(F)cc3)n2)cc1 | > 81 µM | > 81 µM
24 | N#Cc1ccc(Nc2nccc(OCc3ccc(Cl)cc3)n2)cc1 | > 156 µM | > 156 µM
25 | N#Cc1ccc(Nc2nccc(OCc3ccc4ccccc4c3)n2)cc1 | > 212 µM | 10 µM
26 | N#Cc1ccc(Nc2nccc(OCc3cccc(Br)c3)n2)cc1 | > 221 µM | 5 µM
27 | COc1ccccc1COc1ccnc(Nc2ccc(C#N)cc2)n1 | > 8.9 µM | 2.1 µM
28 | COc1cc(COc2ccnc(Nc3ccc(C#N)cc3)n2)cc(OC)c1 | > 44 µM | 0.23 µM
29 | N#Cc1ccc(Nc2nccc(OCc3ccccc3)n2)cc1 | > 13 µM | 1.8 µM
30 | Cc1ccccc1COc1ccnc(Nc2ccc(C#N)cc2)n1 | > 12 µM | > 12 µM

Reference: BindingDB's records for doi:10.1016/j.bmc.2017.03.009 (Wuhan Institute of Technology, 2017)
